Publication PMC4010497, “Synthesis and Evaluation of Fluorine-Substituted Phenyl Acetate Derivatives as Ultra-Short Recovery Sedative/Hypnotic Agents” (PLoS ONE, 2014)

Key:
[1] = Octanol:water partition coefficient; format: physicochemical; conditions: water buffered with 10 mm Tris (pH 7.4)
Procedure: One mg of each hypnotic was added to 10 ml of water buffered with 10 mm Tris (pH 7.4) and 1 ml of octanol. The mixture was stirred overnight and then centrifuged to fully separate the organic and aqueous phases. The relative hypnotic concentration in each phase (i.e., the partition coefficient) was determined by high-performance liquid chromatography as described for blood.

GABAA receptor = assay: GABAA radioligand binding assay ([3H]EBOB); conditions: 50 µM compound, 0.5 nM [3H]EBOB, rat frontoparietal cortex
Procedure: (§1) All the new compounds were dissolved in 5% DMSO.
Specific binding was determined in the presence of compounds.
Membrane suspensions were thawed and centrifuged in incubation buffer at 10,000×g for 10 min and washed by a similar centrifugation. For displacement studies, membrane suspensions (5 mg original wet wt./ml) were incubated with 0.5 nM [^3H]EBOB ([…], Perkin Elmer Life Sciences, Boston, MA, USA) in the absence or presence of 50 µM of new compounds or reference drug for 2 h at 25°C. Nonspecific binding was determined in the presence of 10 µM Bicuculline. Bicuculline and picrotoxin were frequently used to determine the nonspecific binding when [3H]EBOB as radioligand [17]. Triplicate 1 ml samples were filtered on Whatman GF/B filters under vacuum with a Brandel Harvester and washed with 3×3 ml ice-cold buffer.

[2] = In vitro metabolic half-life in rabbit whole blood; format: in vitro ADME; conditions: male, New Zealand White rabbit (n = 3), 37°C, read-out: Mean t1/2 Value
Procedure: (§2) Human whole blood stability experiments were conducted in whole blood from four human donors (male, 18–25 years). Single experiments were conducted with pooled blood from Sprague-Dawley rats (male, 8 weeks, n = 3), New Zealand White rabbits (male, 8–10 weeks, n = 3), Beagle dogs (male, 2–3 years, n = 3) and Cynomolgus monkeys (male, 3–4 years, n = 3). All the blood samples were provided by Xuzhou Medical College. A 1.35-ml aliquot of blood was warmed at 37°C for 5 min and hypnotic (from a 40 mM stock in DMSO solution) was added to a final concentration of 200 µM. After the specified incubation time, a 150-µl sample was removed and the metabolic reaction was quenched using 150-µl acetonitrile. Zero time-point samples were prepared by adding 150-µl acetonitrile (using a 4 mM stock in DMSO) to 150-µl blood before addition of the hypnotic. The quenched samples were centrifuged, and the supernatant was separated and stored at −20°C until analyzed. Hypnotic concentrations in thawed samples were determined by high-performance liquid chromatography using a 3-µm phenyl 4.6×50-mm C-A-25, ACE column with the UV detector set at 240 nm. […] The lower limit of quantitation of this assay is 3 µM and the accuracy within 15% at 10 µM. The metabolic half-lives were quantified from the incubation time-dependent change in drug concentration.

mice = assay: in vivo; conditions: LD50/HD50
Procedure: (§3) The LD50 was determined in mice, rats, and rabbits and the TI was calculated as LD50/HD50.

in vivo = conditions: mouse, in vivo; mice, 95% confidence limits
Procedure: as §3

[3] = In vitro metabolic half-life in human whole blood; format: in vitro ADME; conditions: male, Human (n = 4), 37°C, read-out: Mean t1/2 Value
Procedure: as §2

rabbits [4] = assay: Hypnosis in response to IV infusion in rabbits; format: in vivo, rabbit
Procedure: Induction of hypnosis in rabbits was achieved using 2× HD50 dose of test compound, and immediately after induction, infusion via the tail vein was commenced at half the HD50 dosage per min. the infusion rate was maintained for 20 min or 1 h or 3 h later. The depth of hypnosis was monitored by the magnitude of a withdrawal reflex to intermittent paw pinch provided by a pair of forceps.

rabbits [5] = assay: Therapeutic index (LD50/HD50) in rabbits; format: in vivo, rabbit
Procedure: as §3

[6] = test system: GABAA and dopamine D2, D3, H1, 5HT1A, 5HT2A, 5HT2C, 5HTT, α1 and α2 receptors; conditions: 50 µmol, GABAA vs off-target receptors
Procedure: as §1
Total binding was determined in the absence of no-specific binding and compounds. Specific binding was determined in the presence of compounds. […]
Rat cerebral cortex was homogenized in 20 volumes of ice-cold Tris-HCl buffer (50 mM, pH 7.7) using an ULTRA TURAX homogeniser, and was then centrifuged at 32000 g for 10 min. […] The final pellet was resuspended in Tris-HCl buffer containing 10 µM Pargyline, 4 mM CaCl2 and 0.1% ascorbic acid. […] The incubation was followed by a rapid vacuum filtration through Whatman GF/B glass filters, and the filtrates were washed twice with 5 mL cold buffer and transferred to scintillation vials. Scintillation fluid (3.0 mL) was added and the radioactivity bound was measured using a Beckman LS 6500 liquid scintillation counter.
Rat cerebral cortex was homogenized in 20 volumes of ice-cold Tris-HCl buffer (50 mM, pH 7.7) using an ULTRA TURAX homogeniser, and centrifuged at 32000 g for 20 min. The resulting pellet was resuspended in the same quantity of the buffer centrifuged for 20 min. […] Scintillation fluid (3.0 mL) was added and the radioactivity bound was measured using a Beckman LS 6500 liquid scintillation counter.
The resulting pellet was resuspended in the same quantity of the buffer centrifuged for 20 min.

Which results are given for CCOc1cc(CC(=O)OCC(F)(F)F)ccc1OCC(=O)N(CC)CC [Compound 5j, 2,2,2-trifluoroethyl 2-(4-(2-(diethylamino)-2-oxoethoxy)-3-ethoxyphenyl)acetate]?
Octanol:Water Partition (Coefficient ± SD) [1]: 648±36; GABAA binding (50 µmol) (Mean ± SD), percentage of inhibition (GABAA receptor): 90.5±6.9%; half-life at 200 µM [2]: 11.6 ± 1.6 min; TI (mice): 7.8; LD50 (in vivo): 192 mg/kg; half-life at 200 µM [3]: 25.5 ± 5.6 min; duration of LORR after cessation of infusion (rabbits [4]; 1-h IV infusion): 125.8 ± 57.6 s; duration of LORR after cessation of infusion (rabbits [4]; 3-h IV infusion): 132.9 ± 56.2 s; time to walk after infusion (rabbits [4]; 20-min IV infusion): 15.5 ± 7.55 s; duration of LORR after cessation of infusion (rabbits [4]; 20-min IV infusion at half the HD50 per min after 2× HD50 induction): 117.5 ± 47.2 s; TI (rabbits [5]): 21.2; binding selectivity profile [6]: selective binding to the GABAA receptor
